The record followed here is patent publication US12404239B2, “Modulators of BCL6 as ligand directed degraders” (Celgene Corporation, priority 2022, dated 2025).

In this assay the target is T1, BCL6 (Homo sapiens, UniProt P41182).
T1 construct: HiBiT-tag knocked into endogenous BCL6 locus using CRISPR; endogenous in cells; host or cells: DHL-4_BCL6_HiBiT cells (CRISPR knock-in)
Put plainly: 24 h degradation assay (BCL6 HiBiT). It is filed as cell-based. The settings on record: read-out: YCon (% remaining maximal effect). On the procedure:
A DHL-4 cell line with HiBiT-tag knocked into endogenous BCL6 locus using CRISPR was generated. The DHL-4_BCL6_HiBiT cells were dispensed into 384-well plates (Corning no. 3570) that were pre-spotted with compounds. Compounds were dispensed by an acoustic dispenser (ATS acoustic transfer system from EDC Biosystems) into a 384-well plate in a 10-point dose response curve using 3-fold dilutions starting at 1-10 μM and going down to 0.0015-0.00015 μM. 25 μL of media (RPMI-1640+10% heat inactivated FBS+1×Pen/Strep) containing 2500 of DHL-4 was dispensed per well. […] After incubation, 25 μL of the Nano-Glo HiBiT lytic detection working solution (Promega, catalogue no. N3040, Madison, WI) was added to each well and incubated at room temperature for 15-30 min, protected from light. After 30 min, luminescence was read on an Envision or PHERAstar luminescence reader. To determine the EC50 value (the half-maximum effective concentration) and the level of the gradation (Yconstant) of a BCL6 degrader, luminescent signal normalized by DMSO control (Y) and compound concentration (x) was fitted using a four-parameter dose-response model (Y=(A+((B−A)/1+((C/x)^D) in Dotmatics. Fitted value C is the degradation EC50 and the minimum value A is the Y constant.
For orientation: HiBiT is a short tag that completes a luciferase, so light tracks the accessible tagged protein.
As for `CO[C@@H]1CN(c2ncc(C#N)c(Nc3ccc4c(c3)CC(=O)N4C)n2)CC[C@H]1Nc1ccc2c(C3CCC(=O)NC3=O)nn(C)c2c1` (stereo partly drawn) [Example 145, 2-((3R,4R)-4-((3-(2,6-dioxopiperidin-3-yl)-1-methyl-1H-indazol-6-yl)amino)-3-methoxypiperidin-1-yl)-4-((1-methyl-2-oxoindolin-5-yl)amino) pyrimidine-5-carbonitrile], the Emax lay within 20 to 60%. In the case of `C[C@@H]1C[C@H](N(C)c2ncc(Cl)c(Nc3ccc4c(c3)CC(=O)N4C)n2)CC(=O)N1c1ccc2c(C3CCC(=O)NC3=O)nn(C)c2c1` (stereo partly drawn) [Example 150, 3-(6-((2R,4S)-4-((5-chloro-4-((1-methyl-2-oxoindolin-5-yl)amino)pyrimidin-2-yl)(methyl)amino)-2-methyl-6-oxopiperidin-1-yl)-1-methyl-1H-indazol-3-yl) piperidine-2,6-dione], the Emax is 20 to 60%. With `C[C@@H]1C[C@@H](N(C)c2ncc(Cl)c(Nc3ccc4c(c3)CC(=O)N4C)n2)CC(=O)N1c1ccc2c(C3CCC(=O)NC3=O)nn(C)c2c1` (stereo partly drawn) [Example 151, 3-(6-((2R,4R)-4-((5-chloro-4-((1-methyl-2-oxoindolin-5-yl)amino)pyrimidin-2-yl)(methyl)amino)-2-methyl-6-oxopiperidin-1-yl)-1-methyl-1H-indazol-3-yl) piperidine-2,6-dione], the Emax is less than 20%. On to `C[C@H]1C[C@@H](N(C)c2ncc(Cl)c(Nc3ccc4c(c3)CC(=O)N4C)n2)CC(=O)N1c1ccc2c(C3CCC(=O)NC3=O)nn(C)c2c1` (stereo partly drawn) [Example 152, 3-(6-((2S,4R)-4-((5-chloro-4-((1-methyl-2-oxoindolin-5-yl)amino)pyrimidin-2-yl)(methyl)amino)-2-methyl-6-oxopiperidin-1-yl)-1-methyl-1H-indazol-3-yl) piperidine-2,6-dione], for which the Emax was more than 60%. For the compound `C[C@H]1C[C@H](N(C)c2ncc(Cl)c(Nc3ccc4c(c3)CC(=O)N4C)n2)CC(=O)N1c1ccc2c(C3CCC(=O)NC3=O)nn(C)c2c1` (stereo partly drawn) [Example 153, 3-(6-((2S,4S)-4-((5-chloro-4-((1-methyl-2-oxoindolin-5-yl)amino)pyrimidin-2-yl)(methyl)amino)-2-methyl-6-oxopiperidin-1-yl)-1-methyl-1H-indazol-3-yl) piperidine-2,6-dione], the Emax is less than 20%.
